This is an account of results in ChEMBL document CHEMBL5726417, “Therapeutic agent for pain” (2017).

The IC50 is the concentration that inhibits the measured activity by half.

Chain of 11-beta-hydroxysteroid dehydrogenase 1 (P16232 whole entry): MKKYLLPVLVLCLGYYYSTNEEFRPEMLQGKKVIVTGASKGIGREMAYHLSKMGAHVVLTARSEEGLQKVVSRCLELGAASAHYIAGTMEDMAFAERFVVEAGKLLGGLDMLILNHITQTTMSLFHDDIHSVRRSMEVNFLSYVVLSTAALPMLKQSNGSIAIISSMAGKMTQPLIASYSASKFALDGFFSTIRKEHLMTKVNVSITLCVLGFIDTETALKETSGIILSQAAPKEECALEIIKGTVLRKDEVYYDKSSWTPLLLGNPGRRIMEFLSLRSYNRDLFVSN

This test has as its target 11-beta-hydroxysteroid dehydrogenase 1 (Rattus norvegicus, UniProt P16232). The test can be described thus: Inhibition Assay: The procedure for measuring the 11β-HSD1-inhibitory activity is as follows. The enzyme reaction and the measurement were carried out using a 384-well plate. The enzyme was prepared in accordance with Journal of Biological Chemistry, 2001, Vol. 276, p. 21343-21350. The reaction was carried out by adding a test compound at various concentrations to a reaction liquid consisting of a 5 mM phosphate buffer (pH 6.6), 200 nM cortisone, 40 μM reduced nicotinamide adenine dinucleotide phosphate (NADPH), and rat recombinant 11β-HSD1, followed by incubating at room temperature for one hour (10 μl/well). The test compound was prepared by dissolving in dimethyl sulfoxide (DMSO) such that a DMSO concentration reached 1% in the reaction liquid. After the enzyme reaction was completed, the enzyme inhibitory action was measured by detecting cortisol using a homogeneous time-resolved fluorescence (HTRF) method. Each of a d2-labeled cortisol containing 400 μM carbenoxolone and a cryptate-labeled cortisol antibody (CIS Bio International Co., Ltd.) was added at 5 μl/well, followed by incubating at room temperature for 2 hours, and then the fluorescence intensity was measured using a fluorophotometer (trade name: ARVO HTS 1420, Perkin Elmer/Wallac), and the enzyme inhibitory activity was calculated from the fluorescence intensity ratio of two wavelengths (665 nm/620 nm).The measurement results were calculated by averaging the values of 3 wells of the same condition. The ratio when DMSO was added instead of the test compound was taken as 0% and the ratio when 11β-HSD1 was not added was taken as 100%, thereby calculating the 50% inhibition concentration of the test compound as IC50 of the compound inhibitory activity.
`CC(C)n1c(-c2ccc(C(N)=O)cc2F)nnc1C(C)(C)Oc1c(F)cc(F)cc1F`: the IC50 is 0.023 µM. To `Cn1c(-c2ccc(F)cc2Cl)nnc1C(C)(C)Oc1c(F)cc(F)cc1F` belongs 0.052 µM; to `Cn1c(-c2ccc(C(N)=O)cc2F)nnc1C(C)(C)Oc1c(F)cc(Cl)cc1F` [CLOFUTRIBEN], 0.135 µM; to `CCn1c(-c2ccc(C(N)=O)cc2)nnc1C(C)(C)Oc1c(F)cc(Cl)cc1F`, 0.07 µM.
